The values that follow come from patent US20120178738A1, “DIBENZO [B,F] [1,4]OXAZAPINE COMPOUNDS” (ARYX THERAPEUTICS, INC., priority 2007, published 2012).

Read-outs that look alike come from different tables or passages of the source.

For one test, the target named is T1, human M1 receptors (Homo sapiens, UniProt P11229).
T1 construct: expressed in transfected cells; host or cells: Chinese hamster ovary cells (membranes)
T1 sequence (P11229 1-460): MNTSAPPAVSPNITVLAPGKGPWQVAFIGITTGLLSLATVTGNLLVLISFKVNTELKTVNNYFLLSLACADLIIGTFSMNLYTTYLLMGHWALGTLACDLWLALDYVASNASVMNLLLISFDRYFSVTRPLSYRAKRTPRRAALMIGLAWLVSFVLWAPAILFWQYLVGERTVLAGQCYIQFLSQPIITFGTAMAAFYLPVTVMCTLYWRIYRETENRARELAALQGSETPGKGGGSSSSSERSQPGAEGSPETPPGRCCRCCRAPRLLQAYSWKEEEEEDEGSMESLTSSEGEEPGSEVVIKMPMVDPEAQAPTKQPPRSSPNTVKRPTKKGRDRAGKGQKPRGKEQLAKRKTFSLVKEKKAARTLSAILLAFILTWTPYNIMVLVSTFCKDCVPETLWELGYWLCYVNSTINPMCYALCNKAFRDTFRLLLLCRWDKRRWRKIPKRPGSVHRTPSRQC
Put plainly: hM1 receptor radioligand binding ([3H]NMS). Conditions: pKi reported on a scale of 1 through 5. Here is the method: (§1) Consistent with standard competition radioligand binding assays, the methodology was based on displacement of radioligand from tissues (or cell lines) bearing the receptor of interest (Cheng, Y. and Prusoff, W. H. (1973). Biochem. Pharmacol. 22, 3099-3108). The measurements were based on the binding of a single concentration of radiolabeled ligand in the presence of various concentrations of unlabeled ligand.
(§2) Tissues (or cellular plasma membrane fractions) were incubated in the presence of radioligand at equilibrium and in the presence of a range of concentrations of the test compounds (which were non-radiolabeled), and the displaced radioligand was separated from the membranes by filtration. Nonspecific binding was assessed by measuring displacement of the radioligand in the presence of a compound known to block binding of the radioligand to the receptor. Finally, the concentration-response relationship for radioligand displacement (corrected for non-specific binding) was used to assess binding of the test compound to the receptor.

For test [1], the target named is T2, human D2s dopamine receptors (Homo sapiens, UniProt P14416).
T2 construct: expressed in transfected cells; host or cells: Chinese hamster ovary cells (membranes)
T2 sequence (P14416 1-414 isoform P14416-2): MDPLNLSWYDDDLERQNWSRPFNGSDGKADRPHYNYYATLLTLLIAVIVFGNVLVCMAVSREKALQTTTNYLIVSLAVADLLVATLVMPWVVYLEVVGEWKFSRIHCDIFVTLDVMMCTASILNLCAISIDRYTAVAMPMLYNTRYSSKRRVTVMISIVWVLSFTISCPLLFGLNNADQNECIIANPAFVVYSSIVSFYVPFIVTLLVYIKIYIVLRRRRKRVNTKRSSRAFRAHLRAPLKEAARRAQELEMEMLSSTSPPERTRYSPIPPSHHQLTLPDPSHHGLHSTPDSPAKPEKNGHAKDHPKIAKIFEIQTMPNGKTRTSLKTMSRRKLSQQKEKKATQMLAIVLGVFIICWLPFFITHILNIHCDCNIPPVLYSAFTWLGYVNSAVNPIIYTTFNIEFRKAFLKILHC
Put plainly: hD2S receptor radioligand binding ([3H]spiperone). As to conditions: pKi reported on a scale of 1 through 5. Here is the method:
as §1, §2

In the next test the target is T3, 5-HT2A receptor (Rattus norvegicus, UniProt P14842).
T3 construct: Eight strips of tissue (0.5 cm long) were cut. and were mounted in 10 ml organ baths; tissue Charles River Laboratories; host or cells: rat aorta strips, endothelium removed
T3 sequence (P14842 whole entry): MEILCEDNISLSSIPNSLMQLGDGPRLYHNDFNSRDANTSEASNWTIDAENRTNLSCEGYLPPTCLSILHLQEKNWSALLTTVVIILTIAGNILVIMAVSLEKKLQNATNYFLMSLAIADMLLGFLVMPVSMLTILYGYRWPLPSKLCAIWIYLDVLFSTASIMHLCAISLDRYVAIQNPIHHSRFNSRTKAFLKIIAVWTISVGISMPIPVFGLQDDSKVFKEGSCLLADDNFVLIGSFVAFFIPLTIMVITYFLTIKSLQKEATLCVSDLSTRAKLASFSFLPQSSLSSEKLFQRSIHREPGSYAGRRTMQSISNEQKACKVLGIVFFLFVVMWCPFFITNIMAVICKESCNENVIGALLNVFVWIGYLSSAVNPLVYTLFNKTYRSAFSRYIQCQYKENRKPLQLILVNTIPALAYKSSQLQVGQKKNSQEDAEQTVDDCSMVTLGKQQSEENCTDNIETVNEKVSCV
Briefly: cell-based. As to conditions: read-out: 5HT2A (pKb) (converted). Here is the method: The rat aorta (approximately 7 cm) was isolated and removed from the animal (male Sprague Dawley rat, Charles River Laboratories, Hollister, Calif.). The endothelium was removed mechanically. Eight strips of tissue (0.5 cm long) were cut. and were mounted in 10 ml organ baths kept at 37° C. with Krebs solution (composition in mM: NaCl (118.2), KCl (4.6), CaCl2 (2.5), MgSO4 (1.2), KH2PO4 (1.2), NaHCO3 (24.8) and dextrose (10.0)) that was constantly aerated with carbogen gas (95% O2/5% CO2) to obtain a pH of 7.4. The tissues were subjected to a resting tension of 2 g (3 times, 15 minutes apart, equilibrated in Krebs solution). The tissues were then washed 15 minutes later. Ten minutes later, the tissues were then exposed to 0.1 μM phenylephrine. At the maximal effect, 1 μM acetylcholine was added to confirm the absence of endothelium and then washed twice, 2 minutes apart.
Contractions were recorded as changes in tension from baseline and expressed as a percentage of the maximum response of the agonist (5-HT) concentration-effect curve. Agonist concentration-response curves were fitted using a nonlinear iterative fitting program (GraphPad Prism) using the relationship of Parker and Waud (Parker, R. B. and Waud, D. R. (1971). Pharmacological estimation of drug-receptor dissociation constants. Statistical evaluation. I. Agonists. J. Pharmacol. Exp. Ther., 177, 1-12). Agonist potency was expressed as EC50 (molar concentration of agonist producing 50% of the maximum response). Concentration-ratios (CRs) were determined from EC50 values in the presence and absence of antagonist and antagonist affinity estimates (pKB and pA2 values) were determined. All data are expressed as mean±s.e. mean.

The target in another test is T4, human H1 receptors (Homo sapiens, UniProt P35367).
T4 construct: expressed in transfected cells; host or cells: Chinese hamster ovary cells (membranes)
T4 sequence (P35367 whole entry): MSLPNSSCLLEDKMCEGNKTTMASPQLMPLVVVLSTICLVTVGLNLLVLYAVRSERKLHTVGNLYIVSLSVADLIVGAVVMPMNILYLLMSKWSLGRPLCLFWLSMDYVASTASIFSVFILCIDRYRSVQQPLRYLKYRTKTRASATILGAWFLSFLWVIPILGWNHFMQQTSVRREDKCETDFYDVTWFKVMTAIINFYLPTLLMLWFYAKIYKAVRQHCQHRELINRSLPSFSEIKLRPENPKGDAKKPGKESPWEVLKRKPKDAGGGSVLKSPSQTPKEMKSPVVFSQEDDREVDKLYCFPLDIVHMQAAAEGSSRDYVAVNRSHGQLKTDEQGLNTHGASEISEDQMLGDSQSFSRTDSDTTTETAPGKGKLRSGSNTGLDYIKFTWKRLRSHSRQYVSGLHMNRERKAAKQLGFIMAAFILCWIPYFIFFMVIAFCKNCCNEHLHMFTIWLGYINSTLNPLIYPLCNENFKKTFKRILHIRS
Put plainly: hH1 receptor radioligand binding ([3H]Pyrilamine). Conditions: pKi reported on a scale of 1 through 5. Here is the method: as §1, §2

For another test, the target named is T5, human 5HT1A receptors (Homo sapiens, UniProt P08908).
T5 construct: expressed in transfected cells; host or cells: Chinese hamster ovary cells (membranes)
T5 sequence (P08908 1-422): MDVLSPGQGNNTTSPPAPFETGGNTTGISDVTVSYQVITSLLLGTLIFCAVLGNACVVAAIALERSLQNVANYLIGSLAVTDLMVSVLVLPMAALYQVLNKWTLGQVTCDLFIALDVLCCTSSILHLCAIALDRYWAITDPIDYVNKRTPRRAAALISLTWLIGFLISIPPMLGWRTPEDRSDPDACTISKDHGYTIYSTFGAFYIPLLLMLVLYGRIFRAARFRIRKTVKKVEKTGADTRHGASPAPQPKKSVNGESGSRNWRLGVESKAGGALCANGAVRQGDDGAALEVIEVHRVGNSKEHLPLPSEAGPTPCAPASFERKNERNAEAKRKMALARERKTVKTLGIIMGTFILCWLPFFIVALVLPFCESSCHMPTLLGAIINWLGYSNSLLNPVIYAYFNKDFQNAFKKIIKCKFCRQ
Briefly: h5-HT1A receptor radioligand binding ([3H]8OH-DPAT). Conditions: pKi reported on a scale of 1 through 5. Here is the method:
as §1, §2

The target of the next test is T6, human 5HT2C receptors (Homo sapiens, UniProt P28335).
T6 construct: expressed in transfected cells; host or cells: human embryo kidney cells (membranes)
T6 sequence (P28335 33-458): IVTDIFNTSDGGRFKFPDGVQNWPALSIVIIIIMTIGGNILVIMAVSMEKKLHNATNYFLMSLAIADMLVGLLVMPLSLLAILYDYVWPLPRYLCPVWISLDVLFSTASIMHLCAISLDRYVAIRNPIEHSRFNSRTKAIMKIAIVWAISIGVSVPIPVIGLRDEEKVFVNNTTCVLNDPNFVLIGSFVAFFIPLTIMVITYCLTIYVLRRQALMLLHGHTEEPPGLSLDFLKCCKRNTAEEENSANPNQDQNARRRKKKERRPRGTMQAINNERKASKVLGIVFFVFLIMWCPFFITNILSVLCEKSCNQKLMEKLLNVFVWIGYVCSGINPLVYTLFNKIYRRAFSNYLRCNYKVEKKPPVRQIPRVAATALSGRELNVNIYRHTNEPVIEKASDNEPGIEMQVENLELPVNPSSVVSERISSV
Briefly: h5-HT2C receptor radioligand binding ([3H]Mesulergine). As to conditions: pKi reported on a scale of 1 through 5. The procedure:
The measurements were based on the binding of a single concentration of radiolabeled ligand in the presence of various concentrations of unlabeled ligand.
as §2

[2] abbreviates: pKb reported on a scale of 1 through 5.

Take `CCOC(=O)CC1CN(C2=Nc3ccccc3Oc3ccc(Cl)cc32)CCN1` (single isomer, unassigned) [Compound C, (E)-ethyl 2-(4-(2-chlorodibenzo[b,f][1,4]oxazepin-11-yl)piperazin-2-yl)acetate]: the results for the Ki (on human M1 receptors; in test [1]) were above 10000 nM and 2510 to 9770 nM, respectively. Also, the Kb at 5-HT2A receptor was 31.6 to 97.7 nM.

Take `CC(C)CNC(=O)CC1CN(C2=Nc3cc(Cl)ccc3Oc3ccccc32)CCN1` (centres unmarked) [B, (E)-2-(4-(8-chlorodibenzo[b,f][1,4]oxazepin-11-yl)piperazin-2-yl)-N-isobutylacetamide]: the Ki – broadly, the dissociation constant of the complex between target and ligand, obtained from inhibition or displacement – on human M1 receptors was above 10000 nM; in test [1], 158 to 617 nM. For the same compound, the Kb at 5-HT2A receptor was 31.6 to 97.7 nM.

As to `CCOC(=O)c1ccc(CCC2CN(C3=Nc4cc(Cl)ccc4Oc4ccccc43)CCN2)cc1` (centres unmarked) [Compound F, (E)-ethyl 4-(2-(4-(8-chlorodibenzo[b,f][1,4]oxazepin-11-yl)piperazin-2-yl)ethyl)benzoate], the inhibition constant (Ki) on human M1 receptors is 1260 to 2450 nM; at human H1 receptors it was 1000 to 9770 nM; in test [1], 631 to 2450 nM. For the same compound, the Kb on 5-HT2A receptor (setting [2]) is above 100 nM.

Take `COC(=O)c1ccc(OC[C@H]2CN(C3=Nc4ccccc4Oc4ccc(Cl)cc43)CCN2)cc1` [D, (R,E)-methyl 4-((4-(2-chlorodibenzo[b,f][1,4]oxazepin-11-yl)piperazin-2-yl)methoxy)benzoate]: the Ki on human M1 receptors was above 10000 nM; at human H1 receptors, 100 to 977 nM; in test [1] it was 631 to 2450 nM. For the same compound, the Kb at 5-HT2A receptor was 31.6 to 97.7 nM.

Consider `COC(=O)COCC1CN(C2=Nc3ccccc3Oc3ccc(Cl)cc32)CCN1C` (centres unmarked) [DM, (E)-methyl 2-((4-(2-chlorodibenzo[b,f][1,4]oxazepin-11-yl)-1-methylpiperazin-2-yl)methoxy)acetate], for which the Ki in test [1] is above 10000 nM. In addition, the Kb on 5-HT2A receptor was 10 to 30.9 nM.

With `CN1CCN(C2=Nc3cc(Cl)ccc3Oc3ccccc32)CC1CC(=O)O` (centres unmarked) [DO, (E)-2-(4-(8-chlorodibenzo[b,f][1,4]oxazepin-11-yl)-1-methylpiperazin-2-yl)acetic acid], the Ki on human 5HT1A receptors was 1000 to 9770 nM; on human H1 receptors, 10 to 97.7 nM; at human 5HT2C receptors, 100 to 977 nM; in test [1], above 10000 nM.

Consider `CC[C@H](C)OC(=O)C[C@H]1CN(C2=Nc3cc(Cl)ccc3Oc3ccccc32)CCN1` [EP, sec-butyl 2-((S)-4-((E)-8-chlorodibenzo[b,f][1,4]oxazepin-11-yl)piperazin-2-yl)acetate], for which the Ki is 10 to 97.7 nM at human 5HT1A receptors, 5010 to 9770 nM on human M1 receptors, 100 to 977 nM on human H1 receptors and 158 to 617 nM in test [1]. The Kb on 5-HT2A receptor was 10 to 30.9 nM.

`CN1CC[C@@H](OC(=O)C[C@H]2CN(C3=Nc4cc(Cl)ccc4Oc4ccccc43)CCN2C)C1` [ES, (R)-1-methylpyrrolidin-3-yl 2-((S)-4-((E)-8-chlorodibenzo[b,f][1,4]oxazepin-11-yl)-1-methylpiperazin-2-yl)acetate]: the Ki on human 5HT1A receptors is 1000 to 9770 nM; on human M1 receptors it was above 10000 nM; at human H1 receptors it was 10 to 97.7 nM; in test [1], above 10000 nM.

Consider `COC(=O)C[C@H]1CN(C2=Nc3cc(Cl)ccc3Oc3ccccc32)CCN1CC1CC1` [ET, (S,E)-methyl 2-(4-(8-chlorodibenzo[b,f][1,4]oxazepin-11-yl)-1-(cyclopropylmethyl)piperazin-2-yl)acetate], for which the Ki is 1000 to 9770 nM on human 5HT1A receptors, 2510 to 4900 nM on human M1 receptors, 100 to 977 nM on human H1 receptors and 631 to 2450 nM in test [1]. Also, at 5-HT2A receptor (setting [2]), the Kb is above 100 nM.

With `CN1CCN(C2=Nc3cc(Cl)ccc3Oc3ccccc32)C[C@@H]1CC(=O)NC(CF)CF` [EV, (S,E)-2-(4-(8-chlorodibenzo[b,f][1,4]oxazepin-11-yl)-1-methylpiperazin-2-yl)-N-(1,3-difluoropropan-2-yl)acetamide], the Ki at human 5HT1A receptors is 1000 to 9770 nM; at human M1 receptors it was 5010 to 9770 nM; on human H1 receptors, 10 to 97.7 nM; in test [1], 2510 to 9770 nM. On 5-HT2A receptor, the Kb is 31.6 to 97.7 nM.

As to `CN1CCN(C2=Nc3cc(Cl)ccc3Oc3ccccc32)C[C@@H]1CC(=O)OCCCF` [EX, (S,E)-3-fluoropropyl 2-(4-(8-chlorodibenzo[b,f][1,4]oxazepin-11-yl)-1-methylpiperazin-2-yl)acetate], the Ki was 1000 to 9770 nM at human 5HT1A receptors; 5010 to 9770 nM at human M1 receptors; 10 to 97.7 nM at human H1 receptors; 100 to 977 nM on human 5HT2C receptors; 2510 to 9770 nM in test [1].

Consider `COC(=O)c1ccc(OCC2CN(C3=Nc4cc(Cl)ccc4Oc4ccccc43)CCN2)cc1` (centres unmarked) [G, (E)-methyl 4-((4-(8-chlorodibenzo[b,f][1,4]oxazepin-11-yl)piperazin-2-yl)methoxy)benzoate], for which the Ki is 5010 to 9770 nM on human M1 receptors, 1000 to 9770 nM at human H1 receptors and 2510 to 9770 nM in test [1]. Also, on 5-HT2A receptor, the Kb was 10 to 30.9 nM.

In the case of `O=C(C[C@H]1CN(C2=Nc3cc(Cl)ccc3Oc3ccccc32)CCN1)N1CC[C@@H](O)C1` [GE, 2-((S)-4-((E)-8-chlorodibenzo[b,f][1,4]oxazepin-11-yl)piperazin-2-yl)-1-((R)-3-hydroxypyrrolidin-1-yl)ethanone], the Ki at human 5HT1A receptors was 100 to 977 nM; on human M1 receptors, 2510 to 4900 nM; in test [1], 2510 to 9770 nM. For the same compound, the Kb at 5-HT2A receptor was 10 to 30.9 nM.

Consider `COCCNC(=O)C[C@H]1CN(C2=Nc3cc(Cl)ccc3Oc3ccccc32)CCN1CCO` [GI, (S,E)-2-(4-(8-chlorodibenzo[b,f][1,4]oxazepin-11-yl)-1-(2-hydroxyethyl)piperazin-2-yl)-N-(2-methoxyethyl)acetamide], for which the Ki was 1000 to 9770 nM on human 5HT1A receptors, above 10000 nM on human M1 receptors and above 10000 nM in test [1]. Also, the Kb at 5-HT2A receptor is 31.6 to 97.7 nM.
